Measurements as given in paper PMC3901432 (Bioorganic & medicinal chemistry letters, 2013).

How the values were obtained:
human mGlu1 = human mGlu1 (Homo sapiens, UniProt Q13255); experiment: Calcium mobilization mGlu1 assay; type: cell-based; details: for LLE: ligand-lipophilicity efficiency = pIC50−cLogP; for mGlu1 antagonism (in words): up to the top concentration of 30 μM
CYP3A4 = CYP3A4 (Homo sapiens, UniProt P08684); experiment: Cytochrome P450 inhibition assay in pooled human liver microsomes; type: in vitro ADME
CYP3A4, sequence (P08684 whole entry): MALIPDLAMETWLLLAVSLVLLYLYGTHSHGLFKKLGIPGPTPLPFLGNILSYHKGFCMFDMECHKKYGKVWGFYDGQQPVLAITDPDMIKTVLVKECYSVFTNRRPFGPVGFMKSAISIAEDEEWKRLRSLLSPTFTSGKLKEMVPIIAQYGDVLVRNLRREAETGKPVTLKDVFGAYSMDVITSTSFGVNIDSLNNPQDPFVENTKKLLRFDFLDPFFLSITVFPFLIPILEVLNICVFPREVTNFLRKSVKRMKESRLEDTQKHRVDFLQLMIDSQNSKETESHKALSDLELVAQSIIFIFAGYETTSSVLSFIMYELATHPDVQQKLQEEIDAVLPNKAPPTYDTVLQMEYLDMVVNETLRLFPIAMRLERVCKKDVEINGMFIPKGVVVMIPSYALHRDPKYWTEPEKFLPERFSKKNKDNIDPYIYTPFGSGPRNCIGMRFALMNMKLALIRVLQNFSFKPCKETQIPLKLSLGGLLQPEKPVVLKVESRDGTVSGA

mGlu2 = mGlu2 (Homo sapiens, UniProt Q14416); experiment: mGlu selectivity cell based functional assay; details: tested at 10 μM
mGlu3 = mGlu3 (Homo sapiens, UniProt Q14832); experiment: mGlu selectivity cell based functional assay; details: tested at 10 μM
mGlu3, sequence (Q14832 23-879): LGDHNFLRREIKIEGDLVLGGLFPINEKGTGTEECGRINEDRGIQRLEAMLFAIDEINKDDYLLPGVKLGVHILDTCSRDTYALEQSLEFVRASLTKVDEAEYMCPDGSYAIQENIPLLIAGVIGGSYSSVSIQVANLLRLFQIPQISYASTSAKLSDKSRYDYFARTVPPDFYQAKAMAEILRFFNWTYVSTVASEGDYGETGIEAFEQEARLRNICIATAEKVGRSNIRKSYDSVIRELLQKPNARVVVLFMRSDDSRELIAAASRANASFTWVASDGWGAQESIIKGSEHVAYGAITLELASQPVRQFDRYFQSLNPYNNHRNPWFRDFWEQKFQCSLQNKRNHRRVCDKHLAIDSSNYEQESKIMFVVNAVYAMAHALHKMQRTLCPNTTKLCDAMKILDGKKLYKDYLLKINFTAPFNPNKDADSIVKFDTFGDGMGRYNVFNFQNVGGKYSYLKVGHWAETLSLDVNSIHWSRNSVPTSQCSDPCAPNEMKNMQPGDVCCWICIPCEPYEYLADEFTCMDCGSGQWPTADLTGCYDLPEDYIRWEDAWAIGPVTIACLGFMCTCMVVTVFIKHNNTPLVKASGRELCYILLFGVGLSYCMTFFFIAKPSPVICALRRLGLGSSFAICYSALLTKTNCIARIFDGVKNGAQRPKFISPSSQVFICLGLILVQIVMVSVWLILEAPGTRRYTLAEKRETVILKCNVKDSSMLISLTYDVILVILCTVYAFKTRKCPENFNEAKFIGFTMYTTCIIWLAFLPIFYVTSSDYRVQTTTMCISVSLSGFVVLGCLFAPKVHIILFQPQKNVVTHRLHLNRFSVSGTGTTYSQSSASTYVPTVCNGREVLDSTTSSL

mGlu4 = mGlu4 (Homo sapiens, UniProt Q14833); experiment: mGlu selectivity cell based functional assay; details: tested at 10 μM
mGlu6 = mGlu6 (Homo sapiens, UniProt O15303); experiment: mGlu selectivity cell based functional assay; details: tested at 10 μM
mGlu7 = mGlu7 (Homo sapiens, UniProt Q14831); experiment: mGlu selectivity cell based functional assay; details: tested at 10 μM
mGlu7, sequence (Q14831 35-915): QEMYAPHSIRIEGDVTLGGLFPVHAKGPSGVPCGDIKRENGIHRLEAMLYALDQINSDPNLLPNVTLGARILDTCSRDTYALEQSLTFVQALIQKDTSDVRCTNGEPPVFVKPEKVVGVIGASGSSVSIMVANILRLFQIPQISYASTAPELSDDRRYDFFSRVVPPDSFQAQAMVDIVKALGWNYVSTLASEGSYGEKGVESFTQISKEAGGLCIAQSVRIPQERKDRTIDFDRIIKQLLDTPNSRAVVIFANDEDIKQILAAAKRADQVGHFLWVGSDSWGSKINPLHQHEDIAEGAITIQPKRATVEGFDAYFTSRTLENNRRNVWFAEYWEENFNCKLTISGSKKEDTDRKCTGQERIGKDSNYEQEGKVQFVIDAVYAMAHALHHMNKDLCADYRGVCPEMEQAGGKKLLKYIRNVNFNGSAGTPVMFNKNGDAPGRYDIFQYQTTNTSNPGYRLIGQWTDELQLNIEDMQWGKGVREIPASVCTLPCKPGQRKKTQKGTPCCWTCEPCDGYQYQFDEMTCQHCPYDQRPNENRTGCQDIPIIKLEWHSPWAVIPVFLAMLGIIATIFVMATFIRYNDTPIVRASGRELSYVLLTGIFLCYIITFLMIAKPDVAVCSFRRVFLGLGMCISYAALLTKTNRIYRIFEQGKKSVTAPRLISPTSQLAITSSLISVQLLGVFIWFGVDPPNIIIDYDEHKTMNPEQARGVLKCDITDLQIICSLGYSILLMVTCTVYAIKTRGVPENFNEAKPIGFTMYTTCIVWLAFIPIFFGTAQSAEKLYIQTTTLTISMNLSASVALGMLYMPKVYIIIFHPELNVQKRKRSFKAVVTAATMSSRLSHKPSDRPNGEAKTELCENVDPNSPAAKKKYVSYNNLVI

mGlu8 = mGlu8 (Homo sapiens, UniProt O00222); experiment: mGlu selectivity cell based functional assay; details: tested at 10 μM
mGlu8, sequence (O00222 34-908): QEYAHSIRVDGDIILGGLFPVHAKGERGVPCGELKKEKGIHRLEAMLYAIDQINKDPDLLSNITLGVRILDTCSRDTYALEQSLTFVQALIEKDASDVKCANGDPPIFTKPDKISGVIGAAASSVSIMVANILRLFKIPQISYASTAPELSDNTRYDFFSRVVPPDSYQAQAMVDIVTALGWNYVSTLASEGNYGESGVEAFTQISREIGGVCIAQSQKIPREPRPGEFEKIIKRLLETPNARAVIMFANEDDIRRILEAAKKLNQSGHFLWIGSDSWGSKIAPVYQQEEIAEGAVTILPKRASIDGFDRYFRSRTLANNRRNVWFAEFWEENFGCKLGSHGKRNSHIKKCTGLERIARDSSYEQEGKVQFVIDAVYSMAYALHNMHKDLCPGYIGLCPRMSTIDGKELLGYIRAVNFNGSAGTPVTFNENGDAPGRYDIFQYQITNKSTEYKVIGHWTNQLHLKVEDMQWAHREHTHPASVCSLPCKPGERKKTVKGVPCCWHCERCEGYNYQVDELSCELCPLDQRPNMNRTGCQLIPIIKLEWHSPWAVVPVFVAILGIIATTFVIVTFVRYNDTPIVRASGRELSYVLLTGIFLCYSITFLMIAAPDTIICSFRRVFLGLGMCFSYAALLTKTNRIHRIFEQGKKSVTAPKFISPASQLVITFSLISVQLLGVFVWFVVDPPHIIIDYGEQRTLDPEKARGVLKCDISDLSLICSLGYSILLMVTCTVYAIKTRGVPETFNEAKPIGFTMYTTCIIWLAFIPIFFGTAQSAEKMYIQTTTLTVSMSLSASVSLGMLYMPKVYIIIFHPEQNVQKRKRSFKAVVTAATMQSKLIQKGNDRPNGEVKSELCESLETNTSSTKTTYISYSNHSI

human mGlu1, sequence (Q13255 19-1194): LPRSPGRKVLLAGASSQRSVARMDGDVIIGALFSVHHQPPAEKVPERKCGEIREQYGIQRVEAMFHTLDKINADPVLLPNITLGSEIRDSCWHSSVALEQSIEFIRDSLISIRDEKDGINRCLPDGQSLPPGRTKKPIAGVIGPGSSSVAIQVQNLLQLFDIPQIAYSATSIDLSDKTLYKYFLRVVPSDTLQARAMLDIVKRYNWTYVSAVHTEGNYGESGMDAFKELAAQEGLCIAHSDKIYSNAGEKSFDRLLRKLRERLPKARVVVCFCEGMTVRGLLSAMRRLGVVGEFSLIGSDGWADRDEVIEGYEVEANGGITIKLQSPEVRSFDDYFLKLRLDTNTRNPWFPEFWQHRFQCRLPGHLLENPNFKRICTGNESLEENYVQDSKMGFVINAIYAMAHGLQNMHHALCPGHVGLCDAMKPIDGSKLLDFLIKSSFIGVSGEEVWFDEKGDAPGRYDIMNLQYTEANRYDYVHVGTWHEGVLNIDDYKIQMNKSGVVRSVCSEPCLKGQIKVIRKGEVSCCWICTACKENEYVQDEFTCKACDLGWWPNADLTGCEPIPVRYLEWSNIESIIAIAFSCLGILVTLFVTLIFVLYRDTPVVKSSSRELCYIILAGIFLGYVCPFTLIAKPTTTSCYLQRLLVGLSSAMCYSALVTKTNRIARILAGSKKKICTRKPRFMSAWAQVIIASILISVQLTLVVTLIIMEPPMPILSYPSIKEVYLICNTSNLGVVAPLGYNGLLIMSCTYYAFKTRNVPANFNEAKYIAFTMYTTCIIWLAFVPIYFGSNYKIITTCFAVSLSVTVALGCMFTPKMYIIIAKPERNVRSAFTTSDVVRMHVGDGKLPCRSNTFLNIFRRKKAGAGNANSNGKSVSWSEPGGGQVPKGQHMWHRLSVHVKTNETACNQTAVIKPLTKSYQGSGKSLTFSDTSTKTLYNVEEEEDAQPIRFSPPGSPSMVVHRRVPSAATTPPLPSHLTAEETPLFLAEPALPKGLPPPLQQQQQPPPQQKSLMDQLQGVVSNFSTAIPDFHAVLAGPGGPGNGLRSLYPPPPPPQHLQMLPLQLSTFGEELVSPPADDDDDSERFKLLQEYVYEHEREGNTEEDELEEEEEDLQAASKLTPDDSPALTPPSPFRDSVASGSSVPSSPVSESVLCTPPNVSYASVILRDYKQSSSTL

mGlu1 potency relative to 8 (fold less potent) (human mGlu1) | LLE (human mGlu1) | mGlu1 antagonism (in words) (human mGlu1) | SMILES | also measured
12 fold | – | – | O=C(N1C[C@@H]2CN(c3ncccc3F)C[C@@H]2C1)C12CC3CC(CC(C3)C1)C2 [Compound 29] | –
six fold | 1.88 | – | O=C(N1C[C@@H]2CN(c3ccc(F)cn3)C[C@@H]2C1)C12CC3CC(CC(C3)C1)C2 [Compound 28] | –
– | 2.71 | – | O=C(N1CCC2(CCCCC2)CC1)N1C[C@@H]2CN(c3ccccn3)C[C@@H]2C1 [Compound 40] | –
eight fold | 1.21 | – | O=C(N1C[C@@H]2CN(c3cnccn3)C[C@@H]2C1)C12CC3CC(CC(C3)C1)C2 [Compound 26] | –
– | – | only weak antagonists | O=C(N1C[C@@H]2CN(c3nccs3)C[C@@H]2C1)C12CC3CC(CC(C3)C1)C2 [Compound 23] | –
– | – | – | C[C@@H]1CN(c2cccnc2C#N)CCN1C(=O)C12CC3CC(CC(C3)C1)C2 [VU0469650, reference compound] | CYP3A4 inhibition (in words) (CYP3A4): moderate inhibitors
– | – | only weak antagonists | O=C(N1C[C@@H]2CN(c3ncccn3)C[C@@H]2C1)C12CC3CC(CC(C3)C1)C2 [Compound 24] | –
– | – | inactive | CC(C)(C)CC(=O)N1C[C@@H]2CN(c3ccccn3)C[C@@H]2C1 [Compound 16] | –
– | – | moderate potency | N#Cc1ccncc1N1C[C@H]2CN(C(=O)C34CC5CC(CC(C5)C3)C4)C[C@H]2C1 [Compound 32] | –
sixty | – | – | CC1(C(=O)N2C[C@@H]3CN(c4ccccn4)C[C@@H]3C2)CCCCC1 [Compound 14] | –
equipotent | 2.50 | – | O=C(N1C[C@@H]2CN(c3cccc(F)n3)C[C@@H]2C1)C12CC3CC(CC(C3)C1)C2 [Compound 27] | –
– | 2.79 | – | O=C(N1C[C@@H]2CN(c3ccccn3)C[C@@H]2C1)C12CC3CC(CC(C3)C1)C2 [Compound 8] | human mGlu1 potency relative to 1 (fold more potent) (human mGlu1): greater than seven fold; CYP3A4 inhibition (in words) (CYP3A4): moderate inhibitors; activity at mGlu2 (mGlu2): no activity; activity at mGlu3 (mGlu3): no activity; activity at mGlu4 (mGlu4): no activity; activity at mGlu6 (mGlu6): very weak and marginal activity; activity at mGlu7 (mGlu7): very weak and marginal activity; activity at mGlu8 (mGlu8): very weak and marginal activity
– | 2.87 | moderate potency | N#Cc1ncccc1N1C[C@H]2CN(C(=O)C34CC5CC(CC(C5)C3)C4)C[C@H]2C1 [Compound 34] | –
– | – | only weak antagonists | O=C(N1C[C@@H]2CN(c3ccncn3)C[C@@H]2C1)C12CC3CC(CC(C3)C1)C2 [Compound 25] | –
three fold | 4.12 | – | O=C(N1C[C@@H]2CN(c3ccccn3)C[C@@H]2C1)N1CCC2(CCCC2)C1 [Compound 38] | activity at mGlu2 (mGlu2): no activity; activity at mGlu3 (mGlu3): no activity; activity at mGlu4 (mGlu4): no activity; activity at mGlu6 (mGlu6): very weak and marginally significant activity; activity at mGlu7 (mGlu7): no activity; activity at mGlu8 (mGlu8): very weak and marginally significant activity
– | – | inactive | CC(C)(C)C(=O)N1C[C@@H]2CN(c3ccccn3)C[C@@H]2C1 [Compound 9] | –
– | 2.18 | – | N#Cc1ccccc1N1C[C@H]2CN(C(=O)C34CC5CC(CC(C5)C3)C4)C[C@H]2C1 [Compound 30] | –
